This note sets out measurements from patent US9763911B2, “Prostacyclin compositions for regulation of fracture repair and bone formation” (MAYO FOUNDATION FOR MEDICAL EDUCATION AND RESEARCH, priority 2013, dated 2017).

Assay [1] deals with 6-keto PGF1α (PGI2 synthesis) in KO OC clone 8 cells. Description: 6-keto PGF1α in culture medium of treated Sost KO clonal osteocytes (EIA). The class given is cell-based, mouse. The note with it: 100 nM C59, 48 h, vehicle 274.964±6.006 pg/mL, P=0.012 (FIG. 7B). As for the experimental part: (§1) FIGS. 7A and 7B show inhibition of Wnt secretion with C-59 reduces intra-cellular activated β-catenin concentrations and 6-keto PGF1α concentrations. […] KO OC clone 8 cells were treated with a Wnt inhibitor, C-59 (2-(4-(2-methylpyridin-4-yl)phenyl)-N-(4(pyridine-3-yl)phenyl)acetamide) to assess the functional importance of β-catenin signaling in sclerostin-mediated increases in PGI2 synthesis.
All prostaglandin metabolite measurements were performed by enzyme immunoassay (EIA) using kits from Cayman Chemical (Ann Arbor, Mich.). 6-Keto prostaglandin Flα (Catalog Number 515211), prostaglandin E2 (Catalog Number 514010), Prostaglandin E Metabolite (Catalog Number 514531), prostaglandin F2α (Catalog Number 516011), prostaglandin D2 (Catalog Number 512031), and thromboxane B2 (Catalog Number 519031) were all performed according to kit instructions. Culture medium was diluted 1:2 in supplied buffer for each metabolite measurement, solubilized bone proteins were diluted 1:100 in supplied buffer for each metabolite measurement, and urine was diluted 1:500 in supplied buffer for each metabolite measurement.
Wells in a 6-well collagen treated plate were seeded with 0.2×10^6 sclerostin knock-out osteocytes (Clone KO8). After 48 hours, normal growth medium was removed, and cells were rinsed with PBS. […]

Assay [2] deals with β-catenin in KO OC clone 8 cells. Kind of assay: Activated β-catenin protein in Sost KO clonal osteocytes treated with Wnt inhibitor (immunoblot). The class given is cell-based, mouse. Conditions: KO OC 8 cells, treatment for 48 hours, vs vehicle, P<0.05 (FIG. 7A). The protocol: as §1
Wells in a 6-well collagen treated plate were seeded with 0.2×10^6 sclerostin knock-out osteocytes (Clone KO8). After 48 hours, normal growth medium was removed, and cells were rinsed with PBS. Serum-free media was then added (α-MEM, 1% P/S) to the osteocytes as was well as either 100 nM of the small molecule Wnt inhibitor, C59 (2-(4-(2-methylpyridin-4-yl)phenyl)-N-(4-(pyridine-3-yl)phenyl) acetamide), or a vehicle control. After a 48 hour incubation, media was harvested from both vehicle and experimental wells and assayed for 6-keto prostaglandin F1α.
Cell lysates from 6- or 12-well plates were prepared by scraping cells in lysis buffer (0.1% SDS, 150 mM NaCl, 2 mM sodium vanadate, 0.5% sodium deoxycholate, 1% NP-40 50 mM Tris pH 8.2, 1 mM EDTA with one mini-complete protease inhibitor cocktail EDTA-free tab (Roche Diagnostics, Indianapolis, Ind.)) per 7 ml lysis solution or by direct addition of 1×SDS sample containing 5 mM EDTA and protease inhibitor as above. […]

On to `Cc1cc(-c2ccc(CC(=O)Nc3ccc(-c4cccnc4)cc3)cc2)ccn1` [C59, 2-(4-(2-methylpyridin-4-yl)phenyl)-N-(4(pyridine-3-yl)phenyl)acetamide], for which, in assay [1], the “6-keto PGF1α in culture medium” value amounted to 536.409 ± 60.690 pg/mL. For the same compound, the “β-catenin protein concentration in cells” value in assay [2] is listed as “statistically significant decrease”.
